One data set has as its system P. aeruginosa IFO3445. The data set can be described thus: Antibacterial action, MIC against P. aeruginosa IFO3445 (standard method of the Japanese Chemotherapy Society). The settings on record: Pseudomonas aeruginosa, read-out: minimum growth-inhibition concentration (MIC). Format: cell-based. The protocol: (§1) A minimum growth-inhibition concentration (MIC: μg/ml) was measured according to the standard method of the Japanese Chemotherapy Society (CHEMOTHERAPY, 29 (1), 76, 1981).

The subject of a further data set is S. aureus 209P. The data set can be described thus: Antibacterial action, MIC against S. aureus 209P (standard method of the Japanese Chemotherapy Society). The settings on record: Staphylococcus aureus, read-out: minimum growth-inhibition concentration (MIC). It is filed as cell-based. As to the method: as §1
A further data set relates to female ICR mouse. The data set can be described thus: Phototoxicity test, ear abnormality after UV irradiation. Format: in vivo. The conditions noted are these: 40 mg/kg i.v., UV 320-400 nm 4 hours; for Frequency (ear abnormality), 0 hour / Frequency (ear abnormality), 24 hours / Frequency (ear abnormality), 48 hours: affected/total mice; for Rating (ear abnormality), 0 hour / Rating (ear abnormality), 24 hours / Rating (ear abnormality), 48 hours: point 0 no abnormality, 1 light, 2 medium erythema, 3 heavy erythema or edema. As to the method: After a compound to be tested (40 mg/kg/10 ml) was intravenously administered to a female ICR mouse (5-6 weeks old), ultraviolet radiation (320 to 400 nm, 1.8 mW/cm^2 /sec.) was irradiated for 4 hours. […] Ear abnormality was rated point 0 for no abnormality, point 1 for light erythema, point 2 for medium erythema, and point 3 for heavy erythema or edema.

Another data set concerns CHL cells. Kind of data set: Chromosomal aberration test, CHL cells. The conditions noted are these: 0 to 200 μg/ml; metabolic activation method (S9) and direct method 24 and 48 hours. It is filed as cell-based. As to the method: CHL cells (0.2 to 2×10^5 cells/well) suspended in an Eagle's MEM medium having 10% bovine fetal serum added thereto were incubated in a 60-mm dish. After the cells were cultured at 37° C. for 4 to 72 hours in the presence of 5% CO2, the medium was replaced by a medium containing an agent in a different concentration and culturing was continued under the same conditions. In the case of a metabolic activation method (S9 added medium), after 6 hours of culturing, the medium was replaced by a medium free of an agent and S9 and culturing was continued for a further 18 hours. In the case of a direct method, the cells were cultured in two ways for 24 hours and 48 hours. At the end of culturing, a chromosome sample was prepared according to the method prescribed by the Japan Surrounding Mutagen society.

From US5910498A, “Pyridonecarboxylic acid derivatives or salts thereof and antibacterial agents comprising the same as active ingredient” (Wakunaga Seiyaku Kabushiki Kaisha, priority 1994, dated 1999) come the findings set out here.

Converted amounts (≈) assume the structure as drawn. Where only a bound is given, the exact number is not on record here.

In the case of `Nc1cc(-n2cc(C(=O)O)c(=O)c3cc(F)c(N4CC[C@H](N)C4)nc32)c(F)cc1F` [Example 48, 1-(3-amino-4,6-difluorophenyl)-7-[(3S)-3-aminopyrrolidin-1-yl]-6-fluoro-1,4-dihydro-4-oxo-1,8-naphthyridine-3-carboxylic acid], the MIC with P. aeruginosa IFO3445 was 0.1 µg/mL (≈ 0.238 µM). For the same compound, in the data set on S. aureus 209P, the MIC is 0.025 µg/mL (≈ 0.0596 µM). In the data set with female ICR mouse, the “Frequency (ear abnormality), 0 hour” value is given as 0/3; the “Rating (ear abnormality), 0 hour” value amounted to 0; the “Frequency (ear abnormality), 24 hours” value is reported as 0/3; the “Rating (ear abnormality), 24 hours” value was 0. Besides, in the data set with female ICR mouse, the “Frequency (ear abnormality), 48 hours” value was 0/3 and the “Rating (ear abnormality), 48 hours” value was 0. Moreover, in the data set with CHL cells, the “Chromosomal aberration (rate of structural aberration)” value is “negative”.

Consider `C[C@@H]1CN(c2nc3c(cc2F)c(=O)c(C(=O)O)cn3-c2cc(N)c(F)cc2F)C[C@H]1N` [Example 56, 1-(3-amino-4,6-difluorophenyl)-7-[(3S,4R)-3-amino-4-methylpyrrolidin-1-yl]-6-fluoro-1,4-dihydro-4-oxo-1,8-naphthyridine-3-carboxylic acid], for which the values for the MIC with P. aeruginosa IFO3445 and in the data set with S. aureus 209P were 0.1 µg/mL (≈ 0.231 µM) and 0.025 µg/mL (≈ 0.0577 µM), respectively.

On to `Nc1cc(-n2cc(C(=O)O)c(=O)c3cc(F)c(N4CC[C@H](N)C4)cc32)c(F)cc1F` [Example 60, 1-(3-amino-4,6-difluorophenyl)-7-[(3S)-3-aminopyrrolidin-1-yl]-6-fluoro-1,4-dihydro-4-oxoquinoline-3-carboxylic acid], for which the results for the MIC with P. aeruginosa IFO3445 and in the data set on S. aureus 209P were 0.1 µg/mL (≈ 0.239 µM) and 0.013 µg/mL (≈ 0.0311 µM), respectively.

In the case of `Nc1cc(-n2cc(C(=O)O)c(=O)c3cc(F)c(N4CC(N)C4)nc32)c(F)cc1F` [Example 117, 7-(3-aminoazetidin-1-yl)-1-(3-amino-4,6-difluorophenyl)-6-fluoro-1,4-dihydro-4-oxo-1,8-naphthyridine-3-carboxylic acid], the MIC in the data set on P. aeruginosa IFO3445 was 0.1 µg/mL (≈ 0.247 µM). For the same compound, the MIC with S. aureus 209P was 0.05 µg/mL (≈ 0.123 µM). In addition, in the data set on female ICR mouse, the “Frequency (ear abnormality), 0 hour” value is reported as 0/3; the “Rating (ear abnormality), 0 hour” value was 0; the “Frequency (ear abnormality), 24 hours” value is 0/3; the “Rating (ear abnormality), 24 hours” value worked out at 0. In the data set with female ICR mouse, the “Frequency (ear abnormality), 48 hours” value is reported as 0/3 and the “Rating (ear abnormality), 48 hours” value stood at 0. For the same compound, the “Chromosomal aberration (rate of structural aberration)” value in the data set with CHL cells is “negative”.

For the compound `Nc1cc(-n2cc(C(=O)O)c(=O)c3cc(F)c(N4CC(N)C4)c(F)c32)c(F)cc1F` [Example 150, 7-(3-aminoazetidin-1-yl)-1-(3-amino-4,6-difluorophenyl)-6,8-difluoro-1,4-dihydro-4-oxoquinoline-3-carboxylic acid], the MIC in the data set on P. aeruginosa IFO3445 came to 0.2 µg/mL (≈ 0.474 µM). Moreover, the MIC with S. aureus 209P was 0.025 µg/mL (≈ 0.0592 µM). Besides, in the data set on female ICR mouse, the “Frequency (ear abnormality), 0 hour” value is recorded as 0/3; the “Rating (ear abnormality), 0 hour” value came out at 0; the “Frequency (ear abnormality), 24 hours” value is on record as 0/3; the “Rating (ear abnormality), 24 hours” value was found to be 0. Besides, in the data set with female ICR mouse, the “Frequency (ear abnormality), 48 hours” value is 0/3 and the “Rating (ear abnormality), 48 hours” value stood at 0.

Consider `Nc1cc(-n2cc(C(=O)O)c(=O)c3cc(F)c(N4CC(N)C4)c(Cl)c32)c(F)cc1F` [Example 152, 7-(3-aminoazetidin-1-yl)-1-(3-amino-4,6-difluorophenyl)-8-chloro-6-fluoro-1,4-dihydro-4-oxoquinoline-3-carboxylic acid], for which the MIC in the data set with P. aeruginosa IFO3445 turned out to be 0.05 µg/mL (≈ 0.114 µM). In the data set with S. aureus 209P, the MIC is less than 0.013 µg/mL. In addition, in the data set with female ICR mouse, the “Frequency (ear abnormality), 0 hour” value is on record as 0/3; the “Rating (ear abnormality), 0 hour” value is on record as 0; the “Frequency (ear abnormality), 24 hours” value is 0/3; the “Rating (ear abnormality), 24 hours” value is on record as 0. For the same compound, in the data set on female ICR mouse, the “Frequency (ear abnormality), 48 hours” value is listed as 0/3 and the “Rating (ear abnormality), 48 hours” value turned out to be 0.

Regarding `CC1(N)CN(c2c(F)cc3c(=O)c(C(=O)O)cn(-c4cc(N)c(F)cc4F)c3c2Cl)C1` [Example 156, 1-(3-amino-4,6-difluorophenyl)-7-(3-amino-3-methylazetidin-1-yl)-8-chloro-6-fluoro-1,4-dihydro-4-oxoquinoline-3-carboxylic acid], the MIC in the data set on P. aeruginosa IFO3445 was 0.1 µg/mL (≈ 0.221 µM); with S. aureus 209P, less than 0.013 µg/mL.

`CNC1CN(c2c(F)cc3c(=O)c(C(=O)O)cn(-c4cc(N)c(F)cc4F)c3c2Cl)C1` [Example 157, 1-(3-amino-4,6-difluorophenyl)-8-chloro-6-fluoro-7-(3-methylaminoazetidin-1-yl)-1,4-dihydro-4-oxoquinoline-3-carboxylic acid]: the MIC is 0.1 µg/mL (≈ 0.221 µM) in the data set on P. aeruginosa IFO3445 and less than 0.013 µg/mL in the data set with S. aureus 209P.

On to `Nc1cc(-n2cc(C(=O)O)c(=O)c3c(O)c(F)c(N4CC[C@H](N)C4)cc32)c(F)cc1F` [Example 160, 1-(3-amino-4,6-difluorophenyl)-7-[(3S)-3-aminopyrrolidin-1-yl]-6-fluoro-5-hydroxy-1,4-dihydro-4-oxoquinoline-3-carboxylic acid], for which, in the data set on P. aeruginosa IFO3445, the MIC stood at 0.2 µg/mL (≈ 0.46 µM). Further, in the data set with S. aureus 209P, the MIC was 0.025 µg/mL (≈ 0.0576 µM). In addition, in the data set on female ICR mouse, the “Frequency (ear abnormality), 0 hour” value was 0/3; the “Rating (ear abnormality), 0 hour” value was 0; the “Frequency (ear abnormality), 24 hours” value was 0/3; the “Rating (ear abnormality), 24 hours” value amounted to 0. In addition, in the data set on female ICR mouse, the “Frequency (ear abnormality), 48 hours” value is on record as 0/3 and the “Rating (ear abnormality), 48 hours” value is listed as 0.

As for `Cc1c(F)c(N2CC[C@H](N)C2)cc2c1c(=O)c(C(=O)O)cn2-c1cc(N)c(F)cc1F` [Example 162, 1-(3-amino-4,6-difluorophenyl)-7-[(3S)-3-aminopyrrolidin-1-yl]-6-fluoro-5-methyl-1,4-dihydro-4-oxoquinoline-3-carboxylic acid], the MIC with P. aeruginosa IFO3445 worked out at 0.2 µg/mL (≈ 0.463 µM); in the data set with S. aureus 209P it was 0.013 µg/mL (≈ 0.0301 µM).

Take `NC1CCN(c2nc3c(cc2F)c(=O)c(C(=O)O)cn3-c2ccc(F)cc2F)C1` (stereo not drawn) [tosufloxacin, reference compound]: the MIC in the data set with P. aeruginosa IFO3445 is 0.39 µg/mL (≈ 0.965 µM). Besides, in the data set on S. aureus 209P, the MIC is 0.05 µg/mL (≈ 0.124 µM). Further, in the data set on female ICR mouse, the “Frequency (ear abnormality), 0 hour” value is 4/5; the “Rating (ear abnormality), 0 hour” value amounted to 1.8; the “Frequency (ear abnormality), 24 hours” value was 4/5; the “Rating (ear abnormality), 24 hours” value worked out at 0.8. Besides, in the data set with female ICR mouse, the “Frequency (ear abnormality), 48 hours” value was 1/5 and the “Rating (ear abnormality), 48 hours” value was 0.2.
